# Assay results taken from ChEMBL document CHEMBL5113461, “Improving the solubility and antileukemia activity of Wnt/β-catenin signaling inhibitors by disrupting molecular planarity” (Bioorg Med Chem, 2022).
# Key:
# [1] = Aqueous solubility of the compound in PBS buffer at pH 7.4 incubated for 6 hrs by HPLC analysis; assay type: physicochemical; settings: pH 7.4, 6 h
# K562 [2] = assay: Upregulation of axin-1 levels in human K562 cells by Western blot analysis; assay type: functional, cell-based; settings: dose 0.1-10 µM, DDE = dose-dependent effect
# K562 [3] = assay: Downregulation of beta-catenin levels in human K562 cells by Western blot analysis; assay type: functional, cell-based; settings: dose 0.1-10 µM, DDE = dose-dependent effect
# K562 [4] = assay: cells; settings: Homo sapiens, K562, 48 h
Structure (SMILES),solubility [1] [µg/mL],IC50 (K562 [4]) [µM],Activity (K562 [2]),Activity (K562 [3])
CCc1ccccc1-n1nc(C)c(C(=O)Nc2ccc3ccccc3n2)c1C,5.2,,Dde,Dde
Cc1c(C(=O)Nc2ccc3ccccc3n2)cnn1-c1ccccc1Br,0.05,,,
Cc1ccccc1-n1nnc(C(=O)Nc2ccc3ccccc3n2)c1C,0.11,> 50,,

# Further lines, with some results ahead:
solubility [1] [µg/mL],IC50 (K562 [4]) [µM],Structure (SMILES),Activity (K562 [2]),Activity (K562 [3])
6.7,,Cc1ccccc1-n1nc(C)c(C(=O)Nc2ccc3ccccc3n2)c1C,,
5.9,,Cc1nn(-c2ccccc2Br)c(C)c1C(=O)Nc1ccc2ccccc2n1,,
